Reference: publication PMC8201324, “Pyrazoles and Pyrazolines as Anti-Inflammatory Agents” (Molecules, 2021)
Entries after “also recorded” stand apart in the source; their conditions may differ.

System: adjuvant-induced disease (AID)
Assay: Adjuvant-induced disease (AID)
Assay type: in vivo, Fisher 344 rats
Conditions: AID rats
Experimental: Adjuvant-induced disease (AID) is a good experimental model for rheumatoid arthritis, and is often used in testing agents for anti-inflammatory activity. The compound was administered intraperitoneally on the 1st day, i.e., the day of the administration of Freund’s adjuvant (FA), and once every other day for the following 24 days. Adjuvant arthritis was developed about 14 days post-FA administration. […] The effect of the tested compound on inflammation is shown in Table 7 and the time course of adjuvant arthritis development expressed as arthritic score is shown in Figure 2. In the same experimental model, Indomethacin (IMA) was used as a reference compound.
The animals (Fisher 344 rats), were housed under standard conditions, and received a diet of commercial food pellets and water ad libitum during the maintenance, but were entirely fasted during the experiment period. Both sexes were used, while pregnant females were excluded. Each group was composed of 6–15 animals. Our studies were in accordance with recognized guidelines on animal experimentation (guidelines for the care and use of laboratory animals published by the Greek Government 160/1991, based on EU regulations 86/609). Rats were kept in the Centre of the School of Veterinary Medicine (EL54 BIO42), Aristotle University of Thessaloniki, which is registered by the official state veterinary authorities (presidential degree 56/2013, in harmony with the European Directive 2010/63/EEC). The experimental protocols were approved by the Animal Ethics Committee of the Prefecture of Central Macedonia.
Rats were divided into four groups (five-membered groups of animals were used): groups one, two and three were injected intradermally with 0.1 mL Freund’s adjuvant (FA) into the base of the tails of the animals; group three was the FA control rats; group four was injected with saline, used as an absolute control. Compound 2d (group 1) and indomethacin (group 2) were injected i.p. once every other day for the following 24 days in a dose of 0.00057 mmol/mL/kg body weight (Table 7). Adjuvant arthritis was developed circa 14 days post-FA administration. Arthritic score was measured every 2 days from the commencement (14th day) day. Arthritic score was assessed on the 24th day. For quantification of arthritis (arthritic score); a single point was assigned for each wrist or ankle area and an additional point was given for each involved phalangeal joint, up to a maximum of five points per extremity.
On the 24th day and at least 12 h after the last injection, animals were administered zoxazolamine i.p. […], as an aqueous suspension with a few drops of Tween 80, and the duration of the paralysis were assessed (Table 7) (Figure 2). The experiment was conducted in duplicate.

[1] = 0.00057 mmol/mL/kg i.p. every other day for 24 days

## Brc1ccc(COc2ccc(C3CC(c4ccccc4)=NN3)cc2)cc1 (stereo not shown) [Compound 2d, 5-(4-((4-bromobenzyl)oxy)phenyl)-3-phenyl-4,5-dihydro-1H-pyrazole]
[1]
  Percent change in body weight (g ± SD): 6 ± 0.3 g
  Percent change in liver weight (g ± SD): 7 ± 0.6 g
24th day, zoxazolamine i.p.
  Zoxazolamine paralysis (minutes ± SD): 227 ± 17 min
i.p. once every other day for 24 days, versus AID rat controls
  arthritis development / arthritic score: either did not develop or developed very mild arthritis; also recorded: significantly reduced
